{"source": "patent US8507219B2", "about": "“Method of treating inflammation with statins” (MUSC Foundation for Research Development, priority 1997, dated 2013)", "key": {"[1]": {"system": "IL-1β production in rat primary microglia", "assay": "LPS-induced IL-1β production (ELISA) in rat primary microglia", "format": "cell-based", "experimental": "(§1) Determination of TNF-α and IL-1β in culture supernatants Cells were stimulated with LPS in serum-free media for 24 h in the presence or absence of forskolin or rolipram, and concentrations of TNF-α and IL-1β were measured in culture supernatants by using high-sensitivity enzyme-linked immunosorbent assay (R&D Systems, USA) according to the manufacturer's instructions."}, "[2]": {"system": "IL-1β production in rat macrophages", "assay": "LPS-induced IL-1β production (ELISA) in rat macrophages", "format": "cell-based"}, "[3]": {"system": "cultured skin fibroblasts of X-ALD", "assay": "β-oxidation of lignoceric acid in cultured skin fibroblasts of X-ALD", "format": "cell-based, human"}, "[4]": {"system": "cultured skin fibroblasts of X-ALD", "assay": "VLCFA ratios (C26:0/C22:0, C24:0/C22:0) in X-ALD skin fibroblasts", "format": "cell-based, human", "parameters": "C24:0/C22:0: concentration or dose not given beside the values"}, "[5]": {"system": "IL-6 production in rat primary astrocytes", "assay": "LPS-induced IL-6 production (ELISA) in rat primary astrocytes", "format": "cell-based"}, "[6]": {"system": "cholesterol synthesis in rat primary astrocytes"}, "[7]": {"system": "IL-6 production in rat primary microglia", "assay": "LPS-induced IL-6 production (ELISA) in rat primary microglia", "format": "cell-based"}, "iNOS [8]": {"system": "iNOS", "assay": "Immunofluorescence of iNOS in brain sections of EAE rats", "format": "in vivo, Lewis rats", "experimental": "One group of animals induced for EAE was left untreated while another group of animals was not induced for EAE and used as the control group.\nImmunohistochemistry Brains were fixed in 10% buffered formalin (Stephens Scientific, Riverdale, N.J.). The tissues were embedded in paraffin and sectioned at 4 μm. Sections were then stained for various cytokines and cell markers as described below. For single-label immunohistochemistry, sections were incubated with either anti-iNOS antibody (1:100, rabbit polyclonal, Calbiochem, LaJolla, Calif.) or anti-TNF-α antibody (1:100, rabbit polyclonal, Genzyme, Cambridge, Mass.) or anti-IFN-γ antibody (1:200, rabbit polyclonal, Biosource International, Camarillo, Calif.) essentially as described for other antibodies (Hooper et al., 1997). The tissue sections were further incubated with FITC conjugated anti-rabbit IgG (1:100, Sigma, St. Louis, Mo.), mounted with mounting media (EMS) and analyzed by immunofluorescence microscopy (Olympus) using Adobe photoshop software. For immunofluorescent double-labeling, sections were incubated first with anti-iNOS (1:100) followed by macrophage marker ED1 (1:100, mouse monoclonal, Biosource International, Camarillo, Calif.). Anti-iNOS was visualized using TRITC conjugated anti-rabbit IgG—(1:100, Sigma, St. Louis, Mo.) and ED1 using FITC conjugated anti-mouse IgG (1:100, Sigma, St. Louis, Mo.). […]"}, "[9]": {"system": "TNF-α production in rat primary microglia", "assay": "LPS-induced TNF-α production (ELISA) in rat primary microglia", "format": "cell-based", "experimental": "as §1"}, "iNOS [10]": {"system": "iNOS", "assay": "Expression of iNOS protein (immunoblot) and mRNA (Northern) in rat primary astrocytes", "format": "cell-based", "in_short": "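Cells incubated 24 h with or without stimuli (cytokines or LPS). iNOS protein detected by immunoblot with anti-mouse macrophage iNOS antibody and [^125I]-protein A. Northern blot: 20 μg total RNA hybridised at 68° C with ^32P-cDNA probe; iNOS mRNA quantified densitometrically relative to GAPDH rehybridisation.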"}, "[11]": {"system": "conversion of pro-p21^ras to mature-p21^ras", "conditions": "Sinensky et al., 1991; read-out: IC50 for inhibition of conversion of pro-p21^ras to mature-p21^ras; cited from earlier work"}, "[12]": {"conditions": "Microglia, 10 μM lovastatin or 5 mM NaPA 8 h, then LPS 1.0 μg/ml, 24 h"}}, "note": "Values joined by “and” are separate entries in the source; they are usually repeats but may differ in a detail not shown here. Identical values can stand only once. Like-named read-outs stand apart in the source and are kept apart here.", "data": [{"smiles": "O=C([O-])Cc1ccccc1.[Na+]", "note": "[NaPA, sodium salt of phenylacetic acid]", "values": [{"measurement": "Production of IL-1β", "setting": "[1]", "value": "2.4 ± 0.2", "unit": "ng/24 h/mg protein"}, {"measurement": "Production of IL-1β", "setting": "[2]", "value": "3.1 ± 0.4 ng/24 h/mg protein and 3.1 ± .4 ng/24 h/mg protein"}, {"measurement": "Lignoceric acid β-oxidation", "setting": "[3]", "value": "211.5 ± 22.6 pmol/h/mg protein and 189.7 ± 21.2 pmol/h/mg protein and 183.2 ± 17.3 pmol/h/mg protein and 178.9 ± 18.3 pmol/h/mg protein and 202.5 ± 17.4 pmol/h/mg protein"}, {"measurement": "stimulation of lignoceric acid β-oxidation", "setting": "[3]", "value": 40, "unit": "%"}, {"measurement": "ratios of C26:0/C22:0 and C24:0/C22:0 / level of VLCFA", "setting": "[4]", "value": "almost to the normal level after 15 days of treatment"}, {"measurement": "Production of IL-6", "setting": "[5]", "value": "7.6 ± 0.8", "unit": "ng/24 h/mg protein"}, {"measurement": "inhibition of the synthesis of cholesterol", "setting": "[6]", "value": "64±5.3", "unit": "%"}, {"measurement": "Production of IL-6", "setting": "[7]", "value": "9.3 ± 1.2", "unit": "ng/24 h/mg protein"}, {"measurement": "expression of iNOS in EAE brain", "setting": "iNOS [8]; rat, in vivo, ip", "value": "blocked the ability of MBP to induce the expression of iNOS"}, {"measurement": "Production of TNF-α", "setting": "[9]", "value": "1.3 ± 0.2", "unit": "ng/24 h/mg protein"}, {"measurement": "LPS-mediated induction of iNOS protein and mRNA", "setting": "iNOS [10]", "value": "significantly inhibited the LPS-mediated induction of iNOS protein and mRNA"}]}, {"smiles": "CC[C@H](C)C(=O)O[C@H]1C[C@@H](C)C=C2C=C[C@H](C)[C@H](CC[C@@H]3C[C@@H](O)CC(=O)O3)[C@H]21", "note": "[Lovastatin]", "values": [{"measurement": "Production of IL-1β", "setting": "[1]; [12]", "value": "2.1 ± 0.3", "unit": "ng/24 h/mg protein"}, {"measurement": "Production of IL-1β", "setting": "[2]; Macrophages, 10 μM lovastatin or 5 mM NaPA 8 h, then LPS 1.0 μg/ml, 24 h", "value": "2.3 ± 0.3", "unit": "ng/24 h/mg protein"}, {"measurement": "stimulation of lignoceric acid β-oxidation", "setting": "[3]; 72 h, lovastatin 5 μM, NaPA 5 mM (highest doses found to stimulate)", "value": 70, "unit": "%"}, {"measurement": "Lignoceric acid β-oxidation", "setting": "[3]; ALDS2, 15 days, 5 μM lovastatin, 5 mM NaPA or the combination of 2 μM lovastatin and 2 mM NaPA, Control 142.7 ± 15.7", "value": "223.5 ± 24.1", "unit": "pmol/h/mg protein"}, {"measurement": "Lignoceric acid β-oxidation", "setting": "[3]; ALDS2, 15 days, 5 μM lovastatin, 5 mM NaPA or the combination of 4 μM forskolin and 2 mM NaPA, Control 142.7 ± 15.7", "value": "223.5 ± 24.1", "unit": "pmol/h/mg protein"}, {"measurement": "Lignoceric acid β-oxidation", "setting": "[3]; ALDS3, 15 days, 5 μM lovastatin, 5 mM NaPA or the combination of 2 μM lovastatin and 2 mM NaPA, Control 122.3 ± 11.7", "value": "201.3 ± 22.3", "unit": "pmol/h/mg protein"}, {"measurement": "Lignoceric acid β-oxidation", "setting": "[3]; ALDS3, 15 days, 5 μM lovastatin, 5 mM NaPA or the combination of 4 μM forskolin and 2 mM NaPA, Control 122.3 ± 11.7", "value": "201.3 ± 22.3", "unit": "pmol/h/mg protein"}, {"measurement": "Lignoceric acid β-oxidation", "setting": "[3]; ALDS4, 15 days, 5 μM lovastatin, 5 mM NaPA or the combination of 2 μM lovastatin and 2 mM NaPA, Control 118.5 ± 12.6", "value": "192.8 ± 20.5", "unit": "pmol/h/mg protein"}, {"measurement": "Lignoceric acid β-oxidation", "setting": "[3]; ALDS4, 15 days, 5 μM lovastatin, 5 mM NaPA or the combination of 4 μM forskolin and 2 mM NaPA, Control 118.5 ± 12.6", "value": "192.8 ± 20.5", "unit": "pmol/h/mg protein"}, {"measurement": "Lignoceric acid β-oxidation", "setting": "[3]; ALDS5, 15 days, 5 μM lovastatin, 5 mM NaPA or the combination of 2 μM lovastatin and 2 mM NaPA, Control 154.2 ± 14.2", "value": "248.2 ± 26.2", "unit": "pmol/h/mg protein"}, {"measurement": "Lignoceric acid β-oxidation", "setting": "[3]; ALDS5, 15 days, 5 μM lovastatin, 5 mM NaPA or the combination of 4 μM forskolin and 2 mM NaPA, Control 154.2 ± 14.2", "value": "248.2 ± 26.2", "unit": "pmol/h/mg protein"}, {"measurement": "Lignoceric acid β-oxidation", "setting": "[3]; ALDS6, 15 days, 5 μM lovastatin, 5 mM NaPA or the combination of 2 μM lovastatin and 2 mM NaPA, Control 132.4 ± 15.9", "value": "218.3 ± 19.8", "unit": "pmol/h/mg protein"}, {"measurement": "Lignoceric acid β-oxidation", "setting": "[3]; ALDS6, 15 days, 5 μM lovastatin, 5 mM NaPA or the combination of 4 μM forskolin and 2 mM NaPA, Control 132.4 ± 15.9", "value": "218.3 ± 19.8", "unit": "pmol/h/mg protein"}, {"measurement": "C24:0/C22:0", "setting": "[4]", "value": "1.25 ± 0.15 and 1.28 ± 0.21 and 1.31 ± 0.18 and 1.26 ± 0.16 and 1.29 ± 0.02"}, {"measurement": "Production of IL-6", "setting": "[5]; Astrocytes, 10 μM lovastatin or 5 mM NaPA 8 h, then LPS 1.0 μg/ml, 24 h", "value": "6.9 ± 0.9", "unit": "ng/24 h/mg protein"}, {"measurement": "Production of IL-6", "setting": "[7]; [12]", "value": "7.8 ± 1.1", "unit": "ng/24 h/mg protein"}, {"measurement": "Production of TNF-α", "setting": "[9]; [12]", "value": "0.9 ± 0.1", "unit": "ng/24 h/mg protein"}, {"measurement": "IC50", "setting": "[11]", "value": 2.6, "unit": "µM"}, {"measurement": "LPS-mediated induction of iNOS protein and mRNA", "setting": "iNOS [10]; LPS 1.0 μg/ml", "value": "significantly inhibited the LPS-mediated induction of iNOS protein and mRNA"}]}, {"smiles": "CC(=O)N[C@@H](CS)C(=O)O", "note": "[NAC, N-acetyl cysteine]", "values": [{"measurement": "expression of iNOS in EAE brain", "setting": "iNOS [8]; daily i.p. treatment from day 1", "value": "blocked the ability of MBP to induce the expression of iNOS"}]}]}
